The values that follow come from patent US8946413B2 (Pfizer Inc., priority 2008, dated 2015).

The target in one test is T1, CCR2 (Homo sapiens, UniProt P41597).
T1 construct: (leukophoresis pack); host or cells: human peripheral blood mononuclear cells (PBMCs) from a normal human leukophoresis pack
T1 sequence (P41597 whole entry): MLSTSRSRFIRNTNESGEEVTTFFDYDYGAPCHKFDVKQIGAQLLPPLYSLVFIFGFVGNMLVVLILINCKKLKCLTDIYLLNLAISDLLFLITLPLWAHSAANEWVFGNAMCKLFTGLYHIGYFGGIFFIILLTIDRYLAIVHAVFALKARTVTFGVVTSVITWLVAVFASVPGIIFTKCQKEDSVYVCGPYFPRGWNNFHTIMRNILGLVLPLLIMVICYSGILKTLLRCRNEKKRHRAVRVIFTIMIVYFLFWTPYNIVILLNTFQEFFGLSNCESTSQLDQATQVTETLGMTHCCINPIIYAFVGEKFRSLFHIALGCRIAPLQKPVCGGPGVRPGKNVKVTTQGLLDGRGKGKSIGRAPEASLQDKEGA
Put plainly: hCCR2 (125-I hMCP-1) small molecule binding assay on human PBMCs. The conditions noted are these: 125I-MCP-1, human PBMCs, 30 min preincubation; read-out: IC50 (nM) 30 min preinc. The procedure, abridged:
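Ficoll-isolated human PBMCs pre-incubated 30 min or 1 h with compound at 0.333 μM final (0.67% DMSO), then incubated 30 min at room temperature with 150 pM 125I-hMCP-1 in RPMI/0.1% BSA/20 mM HEPES. Filter-bound radioactivity counted by gamma counter. 100% inhibition defined with 1 μM hMCP-1; IC50 plates run n=2.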
As usually defined, the IC50 is the concentration at which inhibition is half-maximal. In the case of `CO[C@@H]1COCC[C@@H]1N[C@@H]1CC[C@](CC(F)(F)F)(C(=O)N2C[C@@H]3C[C@H]2CN3c2cc(C(F)(F)F)cnn2)C1` [Example 39, 1,5-anhydro-2,3-dideoxy-4-O-methyl-3-{[(1R,3S)-3-(2,2,2-trifluoroethyl)-3-({(1S,4S)-5-[5-(trifluoromethyl)pyridazin-3-yl]-2,5-diazabicyclo[2.2.1]hept-2-yl}carbonyl)cyclopentyl]amino}-D-erythro-pentitol], the IC50 was 82.9 nM.
On to `CO[C@@H]1COCC[C@@H]1N[C@@H]1C=C[C@@](C(=O)N2C[C@@H]3C[C@H]2CN3c2cc(C(F)(F)F)ccn2)(C(C)C)C1` [Example 40, 1,5-anhydro-2,3-dideoxy-3-{[(1S,4S)-4-isopropyll-4-({(1S,4S)-5-[4-(trifluoromethyl)pyridin-2-yl]-2,5-diazabicyclo[2.2.1]hept-2-yl}carbonyl)cyclopent-2-en-1-yl]amino}-4-O-methyl-D-erythro-pentitol], for which the IC50 is 18.3 nM.
Same read-out and setting: as for `CO[C@@H]1COCC[C@@H]1N[C@@H]1C=C[C@@](C(=O)N2C[C@@H]3C[C@H]2CN3c2nccc(C(F)(F)F)n2)(C(C)C)C1` [Example 41, 1,5-anhydro-2,3-dideoxy-3-{[(1S,4S)-4-isopropyll-4-({(1S,4S)-5-[4-(trifluoromethyl)pyrimidin-2-yl]-2,5-diazabicyclo[2.2.1]hept-2-yl}carbonyl)cyclopent-2-en-1-yl]amino}-4-O-methyl-D-erythro-pentitol], the figure is 63.6 nM; as for `CO[C@@H]1COCC[C@@H]1N[C@@H]1C=C[C@@](C(=O)N2C[C@@H]3C[C@H]2CN3c2cccc(C(F)(F)F)n2)(C(C)C)C1` [Example 42, 1,5-anhydro-2,3-dideoxy-3-{[(1S,4S)-4-isopropyll-4-({(1S,4S)-5-[6-(trifluoromethyl)pyridin-2-yl]-2,5-diazabicyclo[2.2.1]hept-2-yl}carbonyl)cyclopent-2-en-1-yl]amino}-4-O-methyl-D-erythro-pentitol], 70.9 nM.
On the same count and under the same terms, as for `CO[C@@H]1COCC[C@@H]1N[C@@H]1C=C[C@@](C(=O)N2C[C@@H]3C[C@H]2CN3c2cncc(C(F)(F)F)n2)(C(C)C)C1` [Example 43, 1,5-anhydro-2,3-dideoxy-3-{[(1S,4S)-4-isopropyll-4-({(1S,4S)-5-[6-(trifluoromethyl)pyrazin-2-yl]-2,5-diazabicyclo[2.2.1]hept-2-yl}carbonyl)cyclopent-2-en-1-yl]amino}-4-O-methyl-D-erythro-pentitol], the figure is 47.3 nM; as for `CO[C@@H]1COCC[C@@H]1N[C@@H]1CC[C@@](C(=O)N2C[C@@H]3C[C@H]2CN3c2cccc(C(F)(F)F)n2)(C2(O)CCC2)C1` [Example 45, 1,5-anhydro-2,3-dideoxy-3-{[(1R,3S)-3-(1-hydroxycyclobutyl)-3-({(1S,4S)-5-[6-(trifluoromethyl)pyridin-2-yl]-2,5-diazabicyclo[2.2.1]hept-2-yl}carbonyl)cyclopentyl]amino}-4-O-methyl-D-erythro-pentitol], 25.3 nM; as for `CO[C@@H]1COCC[C@@H]1N[C@@H]1CC[C@@](C(=O)N2C[C@@H]3C[C@H]2CN3c2cc(C(F)(F)F)ccn2)(C2(O)CCC2)C1` [Example 46, 1,5-anhydro-2,3-dideoxy-3-{[(1R,3S)-3-(1-hydroxycyclobutyl)-3-({(1S,4S)-5-[4-(trifluoromethyl)pyridin-2-yl]-2,5-diazabicyclo[2.2.1]hept-2-yl}carbonyl)cyclopentyl]amino}-4-O-methyl-D-erythro-pentitol], 3.19 nM.
Same read-out and setting: for `CO[C@@H]1COCC[C@@H]1N[C@@H]1CC[C@@](C(=O)N2C[C@@H]3C[C@H]2CN3c2nccc(C(F)(F)F)n2)(C2(O)CCC2)C1` [Example 47, 1,5-anhydro-2,3-dideoxy-3-{[(1R,3S)-3-(1-hydroxycyclobutyl)-3-({(1S,4S)-5-[4-(trifluoromethyl)pyrimidin-2-yl]-2,5-diazabicyclo[2.2.1]hept-2-yl}carbonyl)cyclopentyl]amino}-4-O-methyl-D-erythro-pentitol] the value was 6.16 nM.
Turning to `CO[C@@H]1COCC[C@@H]1N[C@@H]1CC[C@@](C(=O)N2C[C@@H]3C[C@H]2CN3c2ccnc(C(F)(F)F)n2)(C2(O)CCC2)C1` [Example 48, 1,5-anhydro-2,3-dideoxy-3-{[(1R,3S)-3-(1-hydroxycyclobutyl)-3-({(1S,4S)-5-[2-(trifluoromethyl)pyrimidin-4-yl]-2,5-diazabicyclo[2.2.1]hept-2-yl}carbonyl)cyclopentyl]amino}-4-O-methyl-D-erythro-pentitol], the IC50 was found to be 25.3 nM.
On the same count and under the same terms, for `CO[C@@H]1COCC[C@@H]1N[C@@H]1CC[C@@](C(=O)N2C[C@@H]3C[C@H]2CN3c2cc(C(F)(F)F)ncn2)(C2(O)CCC2)C1` [Example 49, 1,5-anhydro-2,3-dideoxy-3-{[(1R,3S)-3-(1-hydroxycyclobutyl)-3-({(1S,4S)-5-[6-(trifluoromethyl)pyrimidin-4-yl]-2,5-diazabicyclo[2.2.1]hept-2-yl}carbonyl)cyclopentyl]amino}-4-O-methyl-D-erythro-pentitol] the value was 35.8 nM.
In the case of `CO[C@@H]1COCC[C@@H]1N[C@@H]1CC[C@@](C(=O)N2C[C@@H]3C[C@H]2CN3c2cncc(C(F)(F)F)n2)(C2(O)CCC2)C1` [Example 50, 1,5-anhydro-2,3-dideoxy-3-{[(1R,3S)-3-(1-hydroxycyclobutyl)-3-({(1S,4S)-5-[6-(trifluoromethyl)pyrazin-2-yl]-2,5-diazabicyclo[2.2.1]hept-2-yl}carbonyl)cyclopentyl]amino}-4-O-methyl-D-erythro-pentitol], the IC50 was found to be 7.14 nM.
Still for that read-out and setting: as for `CO[C@@H]1COCC[C@@H]1N[C@@H]1CC[C@@](C(=O)N2C[C@@H]3C[C@H]2CN3c2ccnc(C(F)(F)F)c2)(C2(O)CCC2)C1` [Example 51, 1,5-anhydro-2,3-dideoxy-3-{[(1R,3S)-3-(1-hydroxycyclobutyl)-3-({(1S,4S)-5-[2-(trifluoromethyl)pyridin-4-yl]-2,5-diazabicyclo[2.2.1]hept-2-yl}carbonyl)cyclopentyl]amino}-4-O-methyl-D-erythro-pentitol], the figure is 22.8 nM; as for `CO[C@@H]1COCC[C@@H]1N[C@@H]1CC[C@@](C(=O)N2C[C@@H]3C[C@H]2CN3c2cc(C(F)(F)F)ccn2)(C(C)(C)O)C1` [Example 52, 1,5-anhydro-2,3-dideoxy-3-{[3-(1-hydroxy-1-methylethyl)-3-({5-[4-(trifluoromethyl)pyridin-2-yl]-2,5-diazabicyclo[2.2.1]hept-2-yl}carbonyl)cyclopentyl]amino}-4-O-methylpentitol], 5.4 nM; as for `CO[C@@H]1COCC[C@@H]1N[C@@H]1CC[C@@](C(=O)N2C[C@@H]3C[C@H]2CN3c2cc(C(F)(F)F)ncn2)(C(C)(C)O)C1` [Example 53, 1,5-anhydro-2,3-dideoxy-3-{[3-(1-hydroxy-1-methylethyl)-3-({5-[6-(trifluoromethyl)pyrimidin-4-yl]-2,5-diazabicyclo[2.2.1]hept-2-yl}carbonyl)cyclopentyl]amino}-4-O-methylpentitol], 27.6 nM.
Still for that read-out and setting: as for `CO[C@@H]1COCC[C@@H]1N[C@@H]1CC[C@@](C(=O)N2C[C@@H]3C[C@H]2CN3c2nccc(C(F)(F)F)n2)(C(C)(C)O)C1` [Example 54], the figure is 8.46 nM; as for `CO[C@@H]1COCC[C@@H]1N[C@@H]1CC[C@@](C(=O)N2C[C@@H]3C[C@H]2CN3c2cc(C(F)(F)F)cnn2)(C(C)(C)O)C1` [Example 55, 1,5-anhydro-2,3-dideoxy-3-{[3-(1-hydroxy-1-methylethyl)-3-({5-[5-(trifluoromethyl)pyridazin-3-yl]-2,5-diazabicyclo[2.2.1]hept-2-yl}carbonyl)cyclopentyl]amino}-4-O-methylpentitol], 28.3 nM; as for `CO[C@@H]1COCC[C@@H]1N[C@@H]1CC[C@@](C(=O)N2C[C@@H]3C[C@H]2CN3c2ccnc(C(F)(F)F)n2)(C(C)(C)O)C1` [Example 56, 1,5-anhydro-2,3-dideoxy-3-{[3-(1-hydroxy-1-methylethyl)-3-({5-[2-(trifluoromethyl)pyrimidin-4-yl]-2,5-diazabicyclo[2.2.1]hept-2-yl}carbonyl)cyclopentyl]amino}-4-O-methylpentitol], 32.8 nM.
`CO[C@@H]1COCC[C@@H]1N[C@@H]1CC[C@@](C(=O)N2C[C@@H]3C[C@H]2CN3c2cccc(C(F)(F)F)n2)(C(C)(C)O)C1` [Example 57, 1,5-anhydro-2,3-dideoxy-3-{[3-(1-hydroxy-1-methylethyl)-3-({5-[6-(trifluoromethyl)pyridin-2-yl]-2,5-diazabicyclo[2.2.1]hept-2-yl}carbonyl)cyclopentyl]amino}-4-O-methylpentitol]: the IC50 is 4.34 nM.
Take `CO[C@@H]1COCC[C@@H]1N[C@@H]1CC[C@@](C(=O)N2C[C@@H]3C[C@H]2CN3c2ccnc(C(F)(F)F)c2)(C(C)(C)O)C1` [Example 58, 1,5-anhydro-2,3-dideoxy-3-{[3-(1-hydroxy-1-methylethyl)-3-({5-[2-(trifluoromethyl)pyridin-4-yl]-2,5-diazabicyclo[2.2.1]hept-2-yl}carbonyl)cyclopentyl]amino}-4-O-methylpentitol]: the IC50 was determined as 38.5 nM.

Still in this test, the particulars now being: 125I-MCP-1, human PBMCs, 1 hr preincubation; read-out: IC50 (nM) 1 hr preinc.
For the compound `CO[C@@H]1COCC[C@@H]1N[C@@H]1CC[C@](CC(F)(F)F)(C(=O)N2C[C@@H]3C[C@H]2CN3c2cc(C(F)(F)F)cnn2)C1` [Example 39, 1,5-anhydro-2,3-dideoxy-4-O-methyl-3-{[(1R,3S)-3-(2,2,2-trifluoroethyl)-3-({(1S,4S)-5-[5-(trifluoromethyl)pyridazin-3-yl]-2,5-diazabicyclo[2.2.1]hept-2-yl}carbonyl)cyclopentyl]amino}-D-erythro-pentitol], the IC50 worked out at 5.81 nM.
On the same count and under the same terms, as for `CO[C@@H]1COCC[C@@H]1N[C@@H]1CC[C@](CC(F)(F)F)(C(=O)N2C[C@@H]3C[C@H]2CN3C(=O)OC(C)(C)C)C1` [Example 44, 1,5-anhydro-3-{[(1R,3S)-3-{[(1S,4S)-5-(tert-butoxycarbonyl)-2,5-diazabicyclo[2.2.1]hept-2-yl]carbonyl}-3-(2,2,2-trifluoroethyl)cyclopentyl]amino}-2,3-dideoxy-4-O-methyl-D-erythro-pentitol], the figure is 8.1 nM.
